# Values of other authors as cited in patent US20230218627A1, “PRESERVATIVE FREE PHARMACEUTICAL COMPOSITION FOR OPHTHALMIC ADMINISTRATION COMPRISING BRIMONIDINE” (PHARMATHEN S.A., priority 2020, published 2023).
# Assays:
# [1] = tested on: alpha-2 adrenergic receptor
solubility in ethanol (ethanol),solubility in water (water),selectivity for the alpha-2 adrenergic receptor than the alpha-1 adrenergic receptor [1] [fold],Structure (SMILES)
soluble,soluble,–,"CC(C)(C)NC[C@H](O)COc1nsnc1N1CCOCC1.O=C(O)/C=C\C(=O)O [Timolol maleate, (2S)-1-[(1,1-Dimethylethyl)amino]-3-[[4-(morpholin-4-yl)-1,2,5-thiadiazol-3-yl]oxy]propan-2-ol (Z)-butenedioate]"
–,–,1000,Brc1c(NC2=NCCN2)ccc2nccnc12 [Brimonidine]
